Measurements reported in patent publication US20240050434A1, “HORMAD1 THERAPEUTICS” (Royal Cancer Hospital, priority 2020, published 2024).
“Also recorded” adds a separate entry of the source.

Test system: HORMAD1 positive organoid KCL625
Test: HORMAD1 positive organoid KCL625 viability by cell titer glo
Type: cell-based
Details: indicated doses, 10 days
Experimental: Organoids were treated with the indicated doses of drug for 10 days and cell viability assessed by cell titer glo. Data is presented as mean and standard deviation of triplicate wells;

CCN(CCO)CCCOc1ccc2c(Nc3cc(CC(=O)Nc4cccc(F)c4)[nH]n3)ncnc2c1 [AZD1152-HQPA]
sensitivity (surviving fraction versus DMSO) of organoid KCL625: highly sensitive; also recorded: high sensitivity
